The target in series [1] is T1, Corticotropin-releasing factor receptor 2/Corticotropin-releasing factor-binding protein (Homo sapiens, UniProt P24387+Q13324).
T1 sequence (Q13324 whole entry): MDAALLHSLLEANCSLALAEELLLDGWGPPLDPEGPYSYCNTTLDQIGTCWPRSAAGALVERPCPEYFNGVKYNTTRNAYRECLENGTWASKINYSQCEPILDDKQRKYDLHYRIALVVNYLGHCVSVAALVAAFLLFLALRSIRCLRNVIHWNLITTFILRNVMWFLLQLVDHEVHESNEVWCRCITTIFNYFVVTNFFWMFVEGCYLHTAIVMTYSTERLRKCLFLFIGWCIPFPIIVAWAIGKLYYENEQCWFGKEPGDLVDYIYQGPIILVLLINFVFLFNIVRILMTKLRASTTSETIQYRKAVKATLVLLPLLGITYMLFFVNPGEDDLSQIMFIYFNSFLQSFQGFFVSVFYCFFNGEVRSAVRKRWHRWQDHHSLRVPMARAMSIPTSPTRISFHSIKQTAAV
T1 sequence (P24387 whole entry): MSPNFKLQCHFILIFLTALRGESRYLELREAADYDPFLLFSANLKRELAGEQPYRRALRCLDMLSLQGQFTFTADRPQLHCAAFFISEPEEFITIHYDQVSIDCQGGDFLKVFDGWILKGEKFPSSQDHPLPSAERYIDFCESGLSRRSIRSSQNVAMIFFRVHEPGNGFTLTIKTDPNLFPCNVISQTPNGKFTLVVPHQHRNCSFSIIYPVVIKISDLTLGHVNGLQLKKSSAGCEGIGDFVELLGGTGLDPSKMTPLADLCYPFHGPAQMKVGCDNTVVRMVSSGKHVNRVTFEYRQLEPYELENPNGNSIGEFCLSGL
The experiment in a line: Dose Response confirmation of uHTS hits for small molecule antagonists of the CRF-binding protein and CRF-R2 receptor complex. It is filed as functional. Particulars: read-out: IC50_Mean.

Series [2] deals with T1, Corticotropin-releasing factor receptor 2/Corticotropin-releasing factor-binding protein. As to the kind of experiment: activators of CRF receptor 2 with binding protein – uHTS hits, confirmation (AID 602473). It is filed as functional. Particulars: read-out: EC50_Mean.
A short description of series [3]: blockers of CRF-binding protein–CRF-R2 complex – cell-based, uHTS hits, 384-well, dose response (AID 651639). In kind it is functional, Homo sapiens. Particulars: read-out: IC50_Mean.
In series [4] the target is T2, Carboxy-terminal domain RNA polymerase II polypeptide A small phosphatase 1 (Homo sapiens, UniProt Q9GZU7).
T2 sequence (Q9GZU7 whole entry): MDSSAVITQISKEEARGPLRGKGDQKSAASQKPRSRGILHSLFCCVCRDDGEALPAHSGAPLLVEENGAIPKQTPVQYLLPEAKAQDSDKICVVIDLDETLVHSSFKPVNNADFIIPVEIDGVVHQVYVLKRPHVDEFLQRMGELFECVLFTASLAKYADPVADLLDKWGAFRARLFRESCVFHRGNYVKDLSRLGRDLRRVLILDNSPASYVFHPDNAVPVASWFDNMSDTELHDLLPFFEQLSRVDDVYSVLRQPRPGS
The experiment in a line: CTDSP1 inhibitors, concentration-response, biochemical, absorbance readout, ultra-high-throughput screen actives (AID 540297). In kind it is functional.

For a further series, the target named is Prothrombin (Homo sapiens, UniProt P00734). As to the kind of experiment: Thrombin 1536 HTS Dose Response Confirmation. [Related pubchem assays: 1046 (Thrombin 1536 HTS; hits were confirmed in this assay)]. It is filed as functional.
The nature of series [5]: intracellular Trypanosoma cruzi inhibitors in host cells – cell-based, plate reader, cherry-pick samples, set 3, dose response (AID 651818).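 Note: compounds incubated with infected cells for about four days.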 It is filed as functional.
Series [6] has as its target T3, High affinity choline transporter 1 (Homo sapiens, UniProt Q9GZV3).
T3 sequence (Q9GZV3 whole entry): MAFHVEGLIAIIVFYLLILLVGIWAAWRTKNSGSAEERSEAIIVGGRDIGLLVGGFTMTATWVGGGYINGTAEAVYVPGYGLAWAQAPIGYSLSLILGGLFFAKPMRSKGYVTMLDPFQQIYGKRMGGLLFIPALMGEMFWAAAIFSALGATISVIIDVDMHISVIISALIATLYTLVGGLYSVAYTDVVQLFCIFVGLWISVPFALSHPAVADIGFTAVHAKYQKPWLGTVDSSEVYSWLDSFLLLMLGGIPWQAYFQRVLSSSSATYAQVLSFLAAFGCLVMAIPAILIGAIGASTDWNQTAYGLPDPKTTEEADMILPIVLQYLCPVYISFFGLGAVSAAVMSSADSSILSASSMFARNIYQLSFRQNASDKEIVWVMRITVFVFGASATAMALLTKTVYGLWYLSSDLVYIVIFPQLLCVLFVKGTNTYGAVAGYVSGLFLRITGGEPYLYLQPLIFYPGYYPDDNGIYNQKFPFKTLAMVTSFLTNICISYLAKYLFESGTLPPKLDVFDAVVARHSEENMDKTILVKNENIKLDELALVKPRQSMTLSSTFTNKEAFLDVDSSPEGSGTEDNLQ
As to the kind of experiment: human choline transporter blockers, potency – cell-based, 5-point CRC, membrane potential dye, dose response (AID 504840). In kind it is functional.

The next series concerns the target Genome polyprotein (dengue virus type 2, UniProt P29990). The experiment in a line: flavivirus cap methylation enzyme inhibition – biochemical, confirmation dose response, primary screen (AID 588689). In kind it is functional.
In the next series the target is Cytochrome P450 2C9 (Homo sapiens, UniProt P11712).
Cytochrome P450 2C9, sequence (P11712 whole entry): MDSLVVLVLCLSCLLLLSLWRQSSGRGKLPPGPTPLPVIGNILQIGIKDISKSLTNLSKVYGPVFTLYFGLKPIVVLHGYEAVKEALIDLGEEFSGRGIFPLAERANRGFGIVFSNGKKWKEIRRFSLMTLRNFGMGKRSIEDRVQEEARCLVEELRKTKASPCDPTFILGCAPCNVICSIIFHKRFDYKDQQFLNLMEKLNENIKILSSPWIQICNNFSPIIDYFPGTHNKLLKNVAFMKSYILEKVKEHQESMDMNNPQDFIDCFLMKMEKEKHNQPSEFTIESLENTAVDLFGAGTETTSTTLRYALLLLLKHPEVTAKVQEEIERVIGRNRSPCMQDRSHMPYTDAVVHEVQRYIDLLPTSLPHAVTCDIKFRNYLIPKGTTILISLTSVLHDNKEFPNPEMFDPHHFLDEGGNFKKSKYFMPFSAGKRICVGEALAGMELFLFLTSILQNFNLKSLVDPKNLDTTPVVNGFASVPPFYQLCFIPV
Another series concerns Escherichia coli. As to the kind of experiment: microbe, parasite or virus in culture.
Series [7] can be described thus: viability of PTEN-deleted HCT116 cells – cell-based, HCT116 PTEN knockout, dose response (AID 1047).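 Note: HCT116 colon tumor cells with PTEN knocked out; cells exposed to compound for 60 hours before readout; potency for loss of cell viability measured by luminescence.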 In kind it is functional.
Series [8] is described as follows: viability of HCT116 lacking mutant beta-catenin – cell-based, human colon tumor, dose response (AID 1045).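 Note: HCT116 colon tumor cells with beta catenin knocked out; cells exposed to compound for 60 hours.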 It is filed as functional.
The subject of series [9] is Streptococcus sp. 'group A'. As to the kind of experiment: Streptococcus pyogenes SK(-)GAS viability under kanamycin – luminescence, BacTiterGlo, confirmation, counter-screen for streptokinase expression inhibitor project, dose response (AID 1900). In kind it is functional, organism-based. A general note: The purpose of a counterscreen is to sort out artefacts and off-target activity.

The next series concerns Streptococcus. The experiment in a line: GAS UMAA2166 growth inhibition – luminescence, BacTiterGlo, counter-screen for streptokinase expression inhibitor project, dose response (AID 1915).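 Note: potency for reduction of bacterial viability or growth.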 It is filed as functional, organism-based.
The next series deals with Large T antigen (Simian virus 40, UniProt P03070). In kind it is functional, Betapolyomavirus macacae.
Large T antigen, sequence (P03070 whole entry): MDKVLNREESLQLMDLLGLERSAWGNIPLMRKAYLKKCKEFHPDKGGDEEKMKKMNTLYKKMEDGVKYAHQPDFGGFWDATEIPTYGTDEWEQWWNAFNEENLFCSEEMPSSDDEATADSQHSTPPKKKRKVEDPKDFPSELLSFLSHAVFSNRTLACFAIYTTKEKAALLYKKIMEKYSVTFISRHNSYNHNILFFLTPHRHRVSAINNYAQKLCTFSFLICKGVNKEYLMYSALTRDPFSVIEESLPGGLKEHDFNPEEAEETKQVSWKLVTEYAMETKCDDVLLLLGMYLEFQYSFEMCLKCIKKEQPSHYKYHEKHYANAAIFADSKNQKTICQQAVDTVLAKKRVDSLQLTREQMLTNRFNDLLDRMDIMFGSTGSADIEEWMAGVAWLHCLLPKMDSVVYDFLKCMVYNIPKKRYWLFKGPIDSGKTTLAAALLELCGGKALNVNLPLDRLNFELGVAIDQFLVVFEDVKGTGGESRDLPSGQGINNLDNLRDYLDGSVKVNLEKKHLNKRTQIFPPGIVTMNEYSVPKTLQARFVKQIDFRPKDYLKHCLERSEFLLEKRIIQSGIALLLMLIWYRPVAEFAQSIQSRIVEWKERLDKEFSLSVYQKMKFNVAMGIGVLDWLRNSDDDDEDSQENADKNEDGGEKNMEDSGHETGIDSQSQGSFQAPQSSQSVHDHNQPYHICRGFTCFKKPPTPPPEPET
A short description of another series: cells. It is filed as functional.

Structures are written as SMILES. Calls of active or inactive are those of the source.

Genome polyprotein, sequence (P29990 2492-3391 limits assumed): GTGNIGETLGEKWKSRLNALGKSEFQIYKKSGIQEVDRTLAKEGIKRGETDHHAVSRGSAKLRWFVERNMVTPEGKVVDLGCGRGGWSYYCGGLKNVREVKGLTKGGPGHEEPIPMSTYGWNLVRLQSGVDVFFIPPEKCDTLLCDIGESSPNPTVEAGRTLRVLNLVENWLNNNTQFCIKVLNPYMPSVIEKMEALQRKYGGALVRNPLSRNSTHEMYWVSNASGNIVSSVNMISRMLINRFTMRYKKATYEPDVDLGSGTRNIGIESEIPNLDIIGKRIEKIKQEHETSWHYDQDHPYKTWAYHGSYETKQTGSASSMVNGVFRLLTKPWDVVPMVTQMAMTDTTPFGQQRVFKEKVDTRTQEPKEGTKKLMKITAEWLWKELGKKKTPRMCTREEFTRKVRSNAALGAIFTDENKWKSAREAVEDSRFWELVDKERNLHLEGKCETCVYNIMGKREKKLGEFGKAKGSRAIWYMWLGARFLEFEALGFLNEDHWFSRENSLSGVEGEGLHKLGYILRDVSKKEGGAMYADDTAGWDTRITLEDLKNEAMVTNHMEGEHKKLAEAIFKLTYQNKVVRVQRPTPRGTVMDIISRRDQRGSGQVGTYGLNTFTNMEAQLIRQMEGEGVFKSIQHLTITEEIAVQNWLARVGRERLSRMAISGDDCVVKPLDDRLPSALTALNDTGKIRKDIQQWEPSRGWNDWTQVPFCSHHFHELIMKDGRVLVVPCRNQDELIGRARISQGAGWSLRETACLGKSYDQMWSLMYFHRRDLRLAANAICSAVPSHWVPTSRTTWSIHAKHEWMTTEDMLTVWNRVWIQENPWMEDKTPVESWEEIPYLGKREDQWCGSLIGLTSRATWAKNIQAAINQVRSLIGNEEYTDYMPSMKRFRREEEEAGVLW

With `CCOC(=O)Cc1csc(NC(=S)NC(=O)c2ccc([N+](=O)[O-])cc2)n1`, the results for the IC50 in series [1] and in series [3] were 16.7 µM (active) and > 20 µM (inactive), respectively. Also, the EC50 in series [2] was 18 µM (active).

In the case of `O=C(CCS(=O)(=O)c1ccc(Br)cc1)NC1CCCCCC1`, the IC50 in [4] is 7.42 µM (active). Still for that read-out and setting: the result for `CCCC(NC(=O)Cc1c(C)c2cc3c(C)c(C)oc3c(C)c2oc1=O)C(=O)N[C@@H](Cc1ccccc1)C(=O)O` (stereo partly specified) reads 3.57 µM (active). In the case of `CCc1cccc(CC)c1NC(=O)c1cccc(N)c1`, on Prothrombin, the IC50 is on record as > 50 µM (not active). In the case of `Cc1cccc(NC(=S)NC23CN4CN(CN(C4)C2)C3)c1`, the IC50 on Prothrombin is > 50 µM (not active). `C[C@@H]1CN([C@@H](C)CO)C(=O)Cc2cc(NC(=O)Nc3cccc4ccccc34)ccc2O[C@@H]1CN(C)Cc1ccc(C(F)(F)F)cc1`: in series [5], the AC50 (commonly the concentration giving half of the maximal activity seen) is 3.08 µM (active).

For `CSc1nc(C)c(C(=O)C[n+]2ccccc2C)cc1C#N`, the figures for the IC50 in [1] and in [3] were < 0.368 µM (active) and > 20 µM (inactive), respectively. Besides, the EC50 in [2] is > 53 µM (inactive). For `CCCN(CCC)c1nc(O)nc(N(CCC)CCC)n1`, the IC50 in series [6] is 3.63 µM (active). Consider `C[C@@H]1CCCCO[C@@H](CN(C)Cc2ccc(Cl)c(Cl)c2)[C@@H](C)CN([C@H](C)CO)C(=O)c2cc(NS(=O)(=O)c3ccc(F)cc3)ccc2O1`, for which the AC50 in [5] was 4.38 µM (active). Consider `O=C(CSc1nnc(-c2ccncc2)n1-c1ccc(F)cc1)NC(=O)NCc1ccco1`, for which, in [4], the IC50 is 8.38 µM (active). As to `CCCC(C(=O)O)N1C(=O)/C(=C2\C(=O)N(C)c3ccccc32)SC1=S` (stereo unspecified), the IC50 on Genome polyprotein was 30.4 µM (active).

`COc1ccc(NC(=O)Nc2ccc3c(c2)CC(=O)N([C@@H](C)CO)C[C@@H](C)[C@@H](CN(C)Cc2ccc(C(=O)Nc4ccccc4N)cc2)O3)cc1`: in series [5], the AC50 is 2.51 µM (active). Regarding `Cc1ncoc1C(=O)Nc1ccc(Oc2ccccc2)cc1`, the IC50 in series [6] is 13.2 µM (active). Regarding `CC(C)c1ccc(NC(=O)COc2ccccn2)cc1`, the IC50 on Prothrombin is > 50 µM (not active). Turning to `CCn1cc(C(=O)O)c(=O)c2cc(F)c(N3CCNCC3)nc21` [ENOXACIN], the AC50 result at Cytochrome P450 2C9 is “inconclusive”; in the series on Escherichia coli it was 1.07 µM (active). On to `Cc1ccc(OCCSC2=NN2c2cc(C)nc(N)n2)cc1`, for which, in series [6], the IC50 is 14.8 µM (active).

For `COc1ccccc1CCNC(=O)CCn1nc(C)c2c(C)n(-c3ccccc3)nc2c1=O`, the IC50 was 41.1 µM (active) in series [1] and > 20 µM (inactive) in [3]. Further, the EC50 in series [2] is > 53 µM (inactive).

`C[C@@H]1CN([C@H](C)CO)C(=O)c2cccc(NC(=O)Nc3ccc4c(c3)OCO4)c2O[C@H]1CN(C)Cc1ccc(C(=O)Nc2ccccc2N)cc1`: the AC50 in series [5] was 0.743 µM (active).

For the compound `Cc1cc([N+](=O)[O-])ccc1NC1CCCC1`, the IC50 in series [1] was 7.24 µM (active); in series [3], 12.8 µM (active). Moreover, the EC50 in series [2] is > 53 µM (inactive). With `O=C(O)c1ccc(Cl)c(S(=O)(=O)Nc2ccccc2C(=O)Nc2ccc(Cl)cc2)c1`, the IC50 at Genome polyprotein is 34 µM (active).

`Cc1cc(Oc2nc3c(C)cccn3c(=O)c2/C=C(\C#N)S(=O)(=O)c2ccc(Cl)cc2)ccc1Cl`: the EC50 was 7.18 µM (active) in series [7] and 6.7 µM (active) in series [8]. In addition, the AC50 in the series with Escherichia coli was 28.9 µM (active).

Take `CC[C@H]1OC(=O)[C@H](C)[C@@H](O[C@H]2C[C@@](C)(OC)[C@@H](O)[C@H](C)O2)[C@H](C)[C@@H](O[C@@H]2O[C@H](C)C[C@H](N(C)C)[C@H]2O)[C@](C)(OC)C[C@@H](C)C(=O)[C@H](C)[C@@H](O)[C@]1(C)O` [CLARITHROMYCIN]: the EC50 (in series [9]; in the series on Streptococcus) was < 0.06 µM (active) each time. In addition, in the series with Escherichia coli, the AC50 was 23.1 µM (active). For the compound `COc1cc(/C=C2/C(=O)NN(c3cccc(C)c3)C2=O)ccc1OC(=O)c1ccco1`, the figures for the IC50 at Large T antigen, in “cells” and on Genome polyprotein were 32.1 µM (active), 19.9 µM (active) and 64 µM (active), respectively. On to `COc1cc2c(cc1NC(=O)COC(=O)[C@@H](NC(=O)c1ccccc1)C(C)C)oc1ccccc12`, for which, in the series on Escherichia coli, the AC50 was 33.8 µM (active). On the same count and under the same terms, in the case of `Cc1ccccc1-c1nc(CN2CCC(C(=O)O)CC2)c(C)o1` it was 20.8 µM (active). Consider `Nc1nnc(SCc2cc3c(cc2Cl)OCO3)s1`, for which the IC50 in series [1] is 22.5 µM (active); in series [3] it was > 20 µM (inactive). The EC50 in series [2] is > 53 µM (inactive). `O=C(Nc1cccc([N+](=O)[O-])c1)Nc1cccc([N+](=O)[O-])c1`: the IC50 in [4] was 8.46 µM (active). `C[C@@H]1CN([C@@H](C)CO)C(=O)Cc2cc(NC(=O)Nc3ccc(C(F)(F)F)cc3)ccc2O[C@@H]1CN(C)Cc1ccc(C(F)(F)F)cc1`: in series [5], the concentration at half-maximal activity (AC50) was 3.26 µM (active). Consider `COC(=O)c1ccc(N2NC(=O)/C(=C/c3cc(OC)c(OC)c(OC)c3)C2=O)cc1`, for which the IC50 at Genome polyprotein is 46.6 µM (active).
